Test results reported in US9029557B2, “Labeled A4B2 ligands and methods therefor” (priority 2004, dated 2015).
Read-outs that look alike come from different tables or passages of the source.

Columns and labels:
α4β2 receptors [1] = molecular target: T1, α4β2 receptors (Homo sapiens, UniProt P17787+P43681); test: Affinity of Niofene; assay type: binding
α3β4 sites = molecular target: T2, α3β4 sites (Rattus norvegicus, UniProt P04757+P12392); test: In vitro binding affinity, inhibition of 125I-IEB in rat brain slices (autoradiography), α3β4 sites; details: 125I-IEB in presence of 200 nmol/L cytisine
T2 construct: The brains from male Sprague-Dawley rats (n=4 per group) were extracted and frozen; from tissue; host or cells: rat brain slices (pineal, interpeduncular nucleus, medial habenula)
T2 sequence (P04757 26-499): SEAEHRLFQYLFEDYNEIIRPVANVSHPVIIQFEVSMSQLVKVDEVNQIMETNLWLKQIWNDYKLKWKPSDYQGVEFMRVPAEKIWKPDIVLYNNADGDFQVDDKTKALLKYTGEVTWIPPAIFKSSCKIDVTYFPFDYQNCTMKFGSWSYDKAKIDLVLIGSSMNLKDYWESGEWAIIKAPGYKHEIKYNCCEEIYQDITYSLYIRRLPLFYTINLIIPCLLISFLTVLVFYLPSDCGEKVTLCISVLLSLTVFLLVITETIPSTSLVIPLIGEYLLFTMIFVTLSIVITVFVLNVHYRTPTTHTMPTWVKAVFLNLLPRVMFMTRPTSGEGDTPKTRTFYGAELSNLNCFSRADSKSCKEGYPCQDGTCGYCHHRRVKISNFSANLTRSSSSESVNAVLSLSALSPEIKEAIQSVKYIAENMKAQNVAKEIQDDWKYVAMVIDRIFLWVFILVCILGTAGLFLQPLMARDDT
T2 sequence (P12392 21-495): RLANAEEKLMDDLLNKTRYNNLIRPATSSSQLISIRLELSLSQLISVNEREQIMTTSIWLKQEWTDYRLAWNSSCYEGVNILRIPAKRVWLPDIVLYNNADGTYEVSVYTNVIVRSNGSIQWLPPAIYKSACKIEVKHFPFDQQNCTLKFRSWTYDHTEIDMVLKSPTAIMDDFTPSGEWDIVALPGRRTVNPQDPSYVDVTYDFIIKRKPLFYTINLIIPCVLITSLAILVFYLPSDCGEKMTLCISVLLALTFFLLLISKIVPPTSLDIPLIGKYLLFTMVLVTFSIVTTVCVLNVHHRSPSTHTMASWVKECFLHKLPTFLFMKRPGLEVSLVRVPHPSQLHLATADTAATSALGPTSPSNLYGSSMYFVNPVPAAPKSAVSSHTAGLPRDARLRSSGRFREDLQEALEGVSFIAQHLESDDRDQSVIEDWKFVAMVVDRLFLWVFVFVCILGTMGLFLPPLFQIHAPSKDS
Procedure: (§1) In vitro binding affinity of nifrolidine was measured in rat brain slices labeled with 125I-iodoepibatidine (125I-IEB) or 125I-α-bungarotoxin. The brains from male Sprague-Dawley rats (n=4 per group) were extracted and frozen in isopentane at […].
(§2) Coronal sections (20-μm thick) were prepared from 4 brain levels on a cryostat at […]. […] Competition studies were performed by incubating alternate sections with 125IIEB in the absence or presence of cytisine (200 nmol/L) and nicotine (300 μmol/L) and various concentrations of nifrolidine (0-30 nmol/L). Slides were then rinsed twice for 10 min in ice-cold buffer, dipped briefly in ice-cold water, blown dry, and laid out for autoradiography along with 125I plastic standards of known radioactivity (FIG. 3). […]
(§3) Autoradiograms were quantified with a computer-based image analysis system (MCID; Imaging Research) using calibrated standards of reference. A calibration curve of to optical density against radioligand concentration (fmol/mg tissue) was constructed using values of known radioactivity. Optical densities in discrete regions of the autoradiographic images were measured, and corresponding values of radioactivity were determined by interpolation from the calibration curve. Specific binding values in each region were determined by subtracting binding in the presence of excess inhibitor from total binding values. […]

α7 nAChRs = molecular target: T3, α7 nAChRs (Rattus norvegicus, UniProt Q05941); test: 125I-α-bungarotoxin binding competition in rat brain slices; details: up to a concentration of 30 nmol/L
T3 construct: The brains from male Sprague-Dawley rats (n=4 per group) were extracted and frozen; from tissue; host or cells: rat brain slices (VLG, SuG)
T3 sequence (Q05941 23-502): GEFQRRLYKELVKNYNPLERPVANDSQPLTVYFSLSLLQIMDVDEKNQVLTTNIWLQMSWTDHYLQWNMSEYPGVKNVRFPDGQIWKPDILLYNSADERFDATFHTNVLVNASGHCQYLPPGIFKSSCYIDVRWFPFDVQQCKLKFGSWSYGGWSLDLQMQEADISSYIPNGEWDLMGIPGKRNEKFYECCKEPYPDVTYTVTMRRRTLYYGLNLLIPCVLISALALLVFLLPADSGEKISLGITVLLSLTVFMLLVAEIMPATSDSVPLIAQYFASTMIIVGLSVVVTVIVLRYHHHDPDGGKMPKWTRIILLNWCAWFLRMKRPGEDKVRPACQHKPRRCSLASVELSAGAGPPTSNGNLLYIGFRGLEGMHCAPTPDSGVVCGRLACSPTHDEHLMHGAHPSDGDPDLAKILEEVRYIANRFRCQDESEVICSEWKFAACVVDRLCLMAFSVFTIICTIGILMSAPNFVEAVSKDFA
Procedure: as §1, §2, §3

α4β2 nAChRs [2] = molecular target: T4, α4β2 nAChRs (Rattus norvegicus, UniProt P09483+P12390); test: In vitro binding affinity, inhibition of 125I-IEB in rat brain slices (autoradiography), α4β2 sites; parameters: from tissue; host or cells: brain of the living rat (PET); details: p-toluenesulfonate salt
T4 sequence (P09483 31-630): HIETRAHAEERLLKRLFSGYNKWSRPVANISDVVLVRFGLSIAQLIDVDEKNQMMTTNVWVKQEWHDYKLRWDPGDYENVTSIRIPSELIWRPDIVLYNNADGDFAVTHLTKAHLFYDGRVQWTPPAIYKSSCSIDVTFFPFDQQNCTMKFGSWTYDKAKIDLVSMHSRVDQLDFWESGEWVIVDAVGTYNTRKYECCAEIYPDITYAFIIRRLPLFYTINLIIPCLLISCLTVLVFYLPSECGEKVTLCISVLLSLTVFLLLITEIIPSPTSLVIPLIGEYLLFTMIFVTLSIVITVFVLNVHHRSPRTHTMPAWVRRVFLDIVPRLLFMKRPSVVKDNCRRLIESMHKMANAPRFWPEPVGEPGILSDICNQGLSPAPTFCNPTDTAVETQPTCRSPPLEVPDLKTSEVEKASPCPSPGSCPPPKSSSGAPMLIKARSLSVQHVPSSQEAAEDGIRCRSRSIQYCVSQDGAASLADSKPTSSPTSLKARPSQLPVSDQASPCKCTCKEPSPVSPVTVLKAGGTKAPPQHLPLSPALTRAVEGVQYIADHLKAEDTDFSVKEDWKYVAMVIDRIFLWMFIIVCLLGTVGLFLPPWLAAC
T4 sequence (P12390 25-500): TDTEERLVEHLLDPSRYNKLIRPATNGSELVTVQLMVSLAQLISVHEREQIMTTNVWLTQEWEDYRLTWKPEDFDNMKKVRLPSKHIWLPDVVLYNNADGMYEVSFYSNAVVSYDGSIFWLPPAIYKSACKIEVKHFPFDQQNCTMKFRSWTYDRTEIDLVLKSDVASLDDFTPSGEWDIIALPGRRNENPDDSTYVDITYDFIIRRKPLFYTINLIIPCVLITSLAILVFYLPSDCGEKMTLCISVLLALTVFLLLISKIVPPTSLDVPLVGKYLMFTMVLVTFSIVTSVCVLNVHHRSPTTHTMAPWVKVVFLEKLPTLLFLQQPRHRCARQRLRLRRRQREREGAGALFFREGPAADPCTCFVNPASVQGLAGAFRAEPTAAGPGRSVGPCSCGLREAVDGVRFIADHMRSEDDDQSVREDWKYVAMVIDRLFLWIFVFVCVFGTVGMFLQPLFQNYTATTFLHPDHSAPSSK
Procedure: as §1, §2, §3

α3β2 sites = molecular target: T5, α3β2 sites (Rattus norvegicus, UniProt P04757+P12390); test: In vitro binding affinity, inhibition of 125I-IEB in rat brain slices (autoradiography), α3β2 sites; details: 125I-IEB in presence of 200 nmol/L cytisine
T5 construct: The brains from male Sprague-Dawley rats (n=4 per group) were extracted and frozen; from tissue; host or cells: rat brain slices (DLG, SuG, optic tract)
T5 sequence (P04757 26-499): as the sequence (P04757 26-499) above
T5 sequence (P12390 25-500): as the sequence (P12390 25-500) above
Procedure: as §1, §2, §3

α4β2 nAChRs [3] = molecular target: α4β2 nAChRs (Homo sapiens, UniProt P17787+P43681); details: comparison agents; cited from earlier work
α4β2 nAChRs (Homo sapiens, UniProt P17787+P43681), sequence (P43681 29-627 limits assumed): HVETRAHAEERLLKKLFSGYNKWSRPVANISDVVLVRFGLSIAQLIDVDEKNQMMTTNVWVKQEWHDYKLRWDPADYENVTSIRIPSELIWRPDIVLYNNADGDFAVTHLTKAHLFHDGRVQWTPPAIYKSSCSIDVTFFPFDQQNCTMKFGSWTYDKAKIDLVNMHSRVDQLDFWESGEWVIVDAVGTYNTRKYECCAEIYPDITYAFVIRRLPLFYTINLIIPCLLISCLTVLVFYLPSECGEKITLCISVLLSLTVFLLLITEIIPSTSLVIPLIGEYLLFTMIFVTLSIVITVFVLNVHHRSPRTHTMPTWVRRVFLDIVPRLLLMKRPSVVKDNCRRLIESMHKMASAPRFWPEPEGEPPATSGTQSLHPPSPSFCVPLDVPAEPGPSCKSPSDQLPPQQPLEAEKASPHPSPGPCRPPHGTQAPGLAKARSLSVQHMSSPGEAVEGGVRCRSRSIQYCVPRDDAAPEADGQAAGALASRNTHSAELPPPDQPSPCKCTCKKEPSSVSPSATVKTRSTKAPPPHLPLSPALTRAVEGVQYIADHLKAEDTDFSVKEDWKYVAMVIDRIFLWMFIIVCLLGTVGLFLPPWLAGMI
α4β2 nAChRs (Homo sapiens, UniProt P17787+P43681), sequence (P17787 26-502): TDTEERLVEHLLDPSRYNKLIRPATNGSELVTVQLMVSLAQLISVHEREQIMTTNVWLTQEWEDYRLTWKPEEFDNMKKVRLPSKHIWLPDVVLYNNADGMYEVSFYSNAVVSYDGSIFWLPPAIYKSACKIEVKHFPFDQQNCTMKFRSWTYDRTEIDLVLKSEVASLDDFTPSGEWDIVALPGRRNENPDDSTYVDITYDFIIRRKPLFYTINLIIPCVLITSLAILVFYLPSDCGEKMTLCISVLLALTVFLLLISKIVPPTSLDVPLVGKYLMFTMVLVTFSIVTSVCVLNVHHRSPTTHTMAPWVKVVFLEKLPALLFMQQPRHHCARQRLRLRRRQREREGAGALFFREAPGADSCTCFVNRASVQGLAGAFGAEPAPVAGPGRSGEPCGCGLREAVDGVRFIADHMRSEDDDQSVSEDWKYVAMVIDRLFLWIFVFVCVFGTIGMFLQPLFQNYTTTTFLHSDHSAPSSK

α4β2 receptors [4] = molecular target: T1, α4β2 receptors; parameters: host or cells: human brain in vivo (SPECT), work done elsewhere; details: human studies; cited from earlier work
alpha4-beta2 receptors = alpha4-beta2 receptors (Rattus norvegicus, UniProt P09483+P12390); details: nicotine 60 μM, horizontal rat brain slices
alpha4-beta2 receptors, sequence (P09483 31-630): as the sequence (P09483 31-630) above
alpha4-beta2 receptors, sequence (P12390 25-500): as the sequence (P12390 25-500) above

α4β2 receptor [5] = molecular target: T6, α4β2 receptor (Rattus norvegicus, UniProt P09483+P12390); test: Autoradiography of 123I-niodene in rat brain sections; assay type: binding; parameters: The brains from male Sprague-Dawley rats (n=4 per group) were extracted and frozen; from tissue; host or cells: rat brain (Sprague-Dawley); details: low specific activity 123I-niodene, 5 nM
T6 sequence (P09483 31-630): as the sequence (P09483 31-630) above
T6 sequence (P12390 25-500): as the sequence (P12390 25-500) above

α4β2 receptor [6] = molecular target: T6, α4β2 receptor; test: Displacement of 18F-nifene bound in rat brain slices; assay type: binding; parameters: The brains from male Sprague-Dawley rats (n=4 per group) were extracted and frozen; from tissue; host or cells: rat brain (Sprague-Dawley); details: 10 nM
rat brain α4β2 receptors = molecular target: T7, rat brain α4β2 receptors (Rattus norvegicus, UniProt P09483+P12390); test: Brain homogenate binding assay using 3H-cytisine; details: read-out: Binding affinity Ki for rat brain α4β2 receptors
T7 construct: The brains from male Sprague-Dawley rats (n=4 per group) were extracted and frozen; from tissue; host or cells: rat brain (Sprague-Dawley)
T7 sequence (P09483 31-630): as the sequence (P09483 31-630) above
T7 sequence (P12390 25-500): as the sequence (P12390 25-500) above

α4β2 nAChRs [7] = molecular target: T4, α4β2 nAChRs; details: rat PET, cerebellum as reference region
α4β2 receptor [8] = molecular target: T6, α4β2 receptor; details: for % ID/g Blood / % ID/g Cerebellum / % ID/g Cortex / % ID/g Thalamus: i.v. 3.7 MBq
Description: The animals were allowed to recover from anesthesia and had free access to food and water. […] Thalamus, Ctx, cerebellum, and blood were isolated from each rat and placed in preweighed tubes and were counted for 18F radioactivity.

α4β2 receptor [9] = system: α4β2 receptor
Procedure: The male rhesus monkey (12 kg) was anesthetized using ketamine (10 mg/kg) and xylazine (0.5 mg/kg) and was subsequently maintained on 0.5%-1.5% isoflurane. Two intravenous catheters were placed, one on each arm, for purposes of administration of the radiopharmaceutical and for obtaining blood samples during the study. The head of the animal was placed in the gantry of an ECAT EXACT HR PET scanner and positioned in place with adhesive tape as described previously. A transmission scan using a 68Ge/68Ga rod source was acquired before administration of the radiopharmaceutical to correct for tissue attenuation of the coincident radiation.
Data in the final form are expressed in units of the percentage injected dose per milliliter (% ID/mL) or kilobecquerels per milliliter (kBq/mL). […] Time-activity curves were obtained for all these regions. […] This MRI template of the rhesus (Macaca mulatta) brain is an average of 6 monkeys with T1-weighted MR scans. Postimage processing removed the skull and scalp from the template (courtesy of University of Wisconsin-Madison).

α4β2 receptor sites = α4β2 receptor sites (Rattus norvegicus, UniProt P09483+P12390)
α4β2 receptor sites, sequence (P09483 31-630): as the sequence (P09483 31-630) above
α4β2 receptor sites, sequence (P12390 25-500): as the sequence (P12390 25-500) above
Procedure: Coronal and horizontal brain slices ([…]) were obtained from male Sprague-Dawley rats. Sets of brain slices were preincubated in buffer (50 mmol/L Tris HCl containing 120 mmol/L NaCl, 5 mmol/L KCl, 2.5 mmol/L CaCl2, 1 mmol/L MgCl2, pH 7.4) for 10 min (26). […] Nonspecific binding was measured in the presence of […] (weighed as nicotine ditartarate). In some experiments, a lower concentration of nicotine (10 μmol/L) was also used. After incubation, slides were washed twice (1 min each) with ice-cold Tris HCl buffer, pH 7.4, followed by a quick rinse in cold deionized water. The slides were then air dried and apposed to phosphor screens overnight and read by the Cyclone Phosphor Imaging System (Packard Instruments Co).

[10] = rhesus monkey PET, 155 MBq i.v.

T1 sequence (P43681 29-627 limits assumed): as the sequence (P43681 29-627 limits assumed) above
T1 sequence (P17787 26-502): as the sequence (P17787 26-502) above

Fc1ncc(I)cc1OC[C@@H]1C=CCN1 [Niofene, 2-Fluoro-5-iodo-3-[2-(S)-3,4-dehydropyrrolinylmethoxy]pyridine]
affinity (α4β2 receptors [1]): subnanomolar

FCCCc1cncc(OC[C@@H]2CCCN2)c1 [nifrolidine, 5-(3′-fluoropropyl)-3-(2-(S)-pyrrolidinylmethoxy)-pyridine]
Ki (α3β4 sites): > 30 nM
affinity for α7 sites (displacement of 125I-α-bungaratoxin) (α7 nAChRs): no measureable displacement and weak
Ki (α4β2 nAChRs [2]): 2.89 nM
Ki (α3β2 sites): > 30 nM

[18F]c1ncccc1OC[C@@H]1CCN1 [2-FA85380, 2-18F-fluoro-3-(2(S)-azetidinylmethoxy)pyridine]
time to reach pseudoequilibrium (α4β2 nAChRs [3]): 4 to 6 h

Ic1cncc(OC[C@@H]2CCN2)c1 [5-IA85380]
scanning time required (α4β2 receptors [4]): over 6 hrs

[18F]c1ncccc1OC[C@@H]1C=CCN1 [^18F-Nifene, 2-[^18F]fluoro-3-[2-(S)-pyrrolinyl-3,4-dehydromethoxy]pyridine]
reversal of binding by nicotine (alpha4-beta2 receptors): rapidly reverse

[123I]c1cncc(OCC2C=CCN2)c1 (centres unmarked) [^123I-niodene]
cortex to cerebellum binding ratio (α4β2 receptor [5]): 1.6
thalamus to cerebellum binding ratio (α4β2 receptor [5]): 4

Ic1cncc(OC[C@@H]2C=CCN2)c1 [Niodene, 3-iodo-5-[2-(S)-3-pyrrolinylmethoxy]pyridine]
displacement of 18F-nifene bound to α4β2 receptors (α4β2 receptor [6]): > 95%
Ki (rat brain α4β2 receptors): 0.27 nM

[18F]c1ncc(I)cc1OC[C@@H]1C=CCN1 [18F-Niofene, 2-^18F-5-iodo-3-[2-(S)-3,4-dehydropyrrolinylmethoxy]pyridine]
TH/CB at pseudoequilibrium (α4β2 nAChRs [7]): > 2

[18F]CCCc1cncc(OC[C@@H]2CCCN2)c1 [18F-nifrolidine, 5-(3-18F-fluoropropyl)-3-(2-(S)-pyrrolidinylmethoxy)pyridine]
Thalamus-to-cerebellum ratio, Control (α4β2 receptor [8]; rat, 2 min): 1.30
Thalamus-to-cerebellum ratio, Control (α4β2 receptor [8]; rat, 60 min): 3.08
Thalamus-to-cerebellum ratio, Before nicotine (α4β2 receptor [8]; rat, 60 min, nicotine ditartarate 10 mg/kg s.c. 5 min before 18F-nifrolidine): 1.8
Thalamus-to-cerebellum ratio, Control (α4β2 receptor [8]; rat, 120 min): 1.40
% ID/g Blood (α4β2 receptor [8]; rat, 2 min): 0.25 % ID/g
% ID/g Cerebellum (α4β2 receptor [8]; rat, 2 min): 0.24 ± 0.03 % ID/g
% ID/g Cortex (α4β2 receptor [8]; rat, 2 min): 0.21 ± 0.04 % ID/g
% ID/g Thalamus (α4β2 receptor [8]; rat, 2 min): 0.26 ± 0.05 % ID/g
% ID/g Blood (α4β2 receptor [8]; rat, 2 min, listed as 18F-NIFROLIDINE): 0.25 ± 0.09 % ID/g
% ID/g Blood (α4β2 receptor [8]; rat, 60 min): 0.14 ± 0.03 % ID/g
% ID/g Cerebellum (α4β2 receptor [8]; rat, 60 min): 0.12 ± 0.02 % ID/g
% ID/g Cortex (α4β2 receptor [8]; rat, 60 min): 0.25 ± 0.03 % ID/g
% ID/g Thalamus (α4β2 receptor [8]; rat, 60 min): > 0.3 % ID/g
% ID/g Thalamus (α4β2 receptor [8]; rat, 60 min, listed as 18F-NIFROLIDINE): 0.37 ± 0.07 % ID/g
% ID/g Blood (α4β2 receptor [8]; rat, 120 min): < 0.03 % ID/g
% ID/g Cerebellum (α4β2 receptor [8]; rat, 120 min): 0.10 ± 0.02 % ID/g
% ID/g Cortex (α4β2 receptor [8]; rat, 120 min): 0.13 ± 0.04 % ID/g
% ID/g Thalamus (α4β2 receptor [8]; rat, 120 min): 0.14 ± 0.03 % ID/g
% ID/g Blood (α4β2 receptor [8]; rat, 120 min, listed as 18F-NIFROLIDINE): 0.04 ± 0.01 % ID/g
blood-brain barrier penetration (α4β2 receptor [8]; rodents, in vivo): able to cross the blood-brain barrier
vital signs (α4β2 receptor [9]; anesthetized rhesus monkey, 155 MBq): did not exhibit any unusual deviations from the baseline values
time of maximal binding in the thalamus following injection (α4β2 receptor [9]; rhesus monkey PET): > 70 min
time to approach transient equilibrium (α4β2 receptor [9]; rhesus monkey PET): about 2.5 hrs
time to plateauing of the thalamus-to-Cb ratio (α4β2 receptor [9]; rhesus monkey PET): 150 min
selective maximal uptake in AVT and AMT (α4β2 receptor [9]; [10]): 0.011 % ID/mL
uptake in VLT (α4β2 receptor [9]; [10]): 0.10 % ID/mL
ratio between the thalamus and the Cb (α4β2 receptor [9]; rhesus monkey PET, about 140 min after injection): approximately 1.7
cortical regions to Cb ratio (α4β2 receptor [9]; rhesus monkey PET, in 120 min): 1.3
thalamus-to-Cb ratio (plateau) (α4β2 receptor [9]; rhesus monkey PET, in 120 min): 1.7
binding in cerebellum as % of that found in the AV (α4β2 receptor sites; horizontal rat brain slices): approximately 8%
order of binding in brain regions (α4β2 receptor sites; horizontal slices): thalamus>Ctx>striata>cerebellum
